The values that follow are results of earlier work, collected in publication PMC7377239, “Cardiovascular Effects of Polychlorinated Biphenyls and Their Major Metabolites” (Environmental Health Perspectives, 2020).

This data set has as its system porcine pulmonary artery–derived EC. Details: method as in Hennig et al. 2002, 2005; Toborek et al. 1995. Conditions: ref Hennig et al. 2002, 2005, Toborek et al. 1995; cited from earlier work.
As to `Clc1ccc(-c2ccc(Cl)c(Cl)c2)cc1Cl` [PCB 77], the EC toxicity entry was “potent inducers of EC toxicity”.
As to `Clc1ccc(-c2cc(Cl)c(Cl)c(Cl)c2Cl)cc1` [PCB 114], the EC toxicity entry is recorded as “potent inducers of EC toxicity”.
For `Clc1ccc(-c2cc(Cl)c(Cl)cc2Cl)cc1Cl` [PCB 118], the EC toxicity result was “potent inducers of EC toxicity”.
